Measured values as given in patent publication US6472348B1, “Pyridone derivatives and herbicides” (Kumiai Chemical Industry Co., Ltd., priority 1996, dated 2002).

Legend:
Format in all cases: in vivo
[1] = tested on: slender amaranth (Am); assay: Test Example 2: herbicidal effects by upland field soil treatment; settings: 100 g of the active ingredient per 10 ares;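 also: grade of growth control; 5 = at least 90%; 4 = 70 to 90%; 3 = 50 to 70%; 2 = 30 to 50%; 1 = 10 to 30%; 0 = under 10%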
Source text: (§1) (Test on Herbicidal Effects by Upland Field Soil Treatment)

[2] = tested on: pale smartweed (Po); assay: as above; settings: 100 g of the active ingredient per 10 ares
Source text: as §1

[3] = tested on: Digitaria ciliaris (Di); assay: as above; settings: 100 g of the active ingredient per 10 ares;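 also: grade of growth control; 5 = at least 90%; 4 = 70 to 90%; 3 = 50 to 70%; 2 = 30 to 50%; 1 = 10 to 30%; 0 = under 10%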
Source text: as §1

[4] = tested on: rice flatsedge (Ci); assay: as above; settings: 100 g of the active ingredient per 10 ares
Source text: as §1

[5] = tested on: common lambsquarters (Ch); assay: as above; settings: 100 g of the active ingredient per 10 ares
Source text: as §1

[6] = tested on: barnyardgrass (Ec); assay: as above; settings: 100 g of the active ingredient per 10 ares
Source text: as §1

[7] = tested on: slender amaranth (Am); assay: Test Example 3: herbicidal effects by upland field foliage treatment; design: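 grade of growth control; 5 = at least 90%; 4 = 70 to 90%; 3 = 50 to 70%; 2 = 30 to 50%; 1 = 10 to 30%; 0 = under 10%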
Outline: (§2)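 Pot culture: sand, 120 cm^2 surface; seeds sown, soil-covered, greenhouse 2 weeks. Foliage treatment applied at that stage. Herbicidal effect rated by standard scale, day 14 post-treatment.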

[8] = tested on: pale smartweed (Po); assay: as above; design: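 grade of growth control; 5 = at least 90%; 4 = 70 to 90%; 3 = 50 to 70%; 2 = 30 to 50%; 1 = 10 to 30%; 0 = under 10%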
Outline: as §2

[9] = tested on: rice flatsedge (Ci); assay: as above; design: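 grade of growth control; 5 = at least 90%; 4 = 70 to 90%; 3 = 50 to 70%; 2 = 30 to 50%; 1 = 10 to 30%; 0 = under 10%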
Outline: as §2

[10] = tested on: common lambsquarters (Ch); assay: as above; design: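 grade of growth control; 5 = at least 90%; 4 = 70 to 90%; 3 = 50 to 70%; 2 = 30 to 50%; 1 = 10 to 30%; 0 = under 10%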
Outline: as §2

[11] = tested on: barnyardgrass (Ec); assay: as above; design: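 grade of growth control; 5 = at least 90%; 4 = 70 to 90%; 3 = 50 to 70%; 2 = 30 to 50%; 1 = 10 to 30%; 0 = under 10%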
Outline: as §2

[12] = tested on: Diaitaria ciliaris (Di); assay: as above; design: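 grade of growth control; 5 = at least 90%; 4 = 70 to 90%; 3 = 50 to 70%; 2 = 30 to 50%; 1 = 10 to 30%; 0 = under 10%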
Outline: as §2

[13] = tested on: bulrush (Sc); assay: Test Example 1: herbicidal effects by paddy field soil treatment; settings: 100 g of the active ingredient per 10 ares, 21st day after the application, index 0-5 of Table 47;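 also: grade of growth control; 5 = at least 90%; 4 = 70 to 90%; 3 = 50 to 70%; 2 = 30 to 50%; 1 = 10 to 30%; 0 = under 10%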
Outline: (§3)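 Greenhouse pot test in flooded paddy soil, dosed at 100 g a.i. per 10 ares; effect scored on day 21.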

[14] = tested on: barnyardgrass (Ec); assay: as above; settings: 100 g of the active ingredient per 10 ares, 21st day after the application, index 0-5 of Table 47
Outline: as §3

[15] = tested on: monochoria (Mo); assay: as above; settings: 100 g of the active ingredient per 10 ares, 21st day after the application, index 0-5 of Table 47;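 also: grade of growth control; 5 = at least 90%; 4 = 70 to 90%; 3 = 50 to 70%; 2 = 30 to 50%; 1 = 10 to 30%; 0 = under 10%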
Outline: as §3

[16] = 21st day after the application, index 0-5 of Table 47
[17] = 100 g of the active ingredient per 10 ares, evaluated on the 14th day after treatment
[18] = evaluated on the 21st day after application
[19] = 100 g active ingredient per 10 ares, evaluated 14th day after treatment

Row | Structure (SMILES) | Herbicidal effects Am [7, 17] | Herbicidal effects Po [8, 17] | Herbicidal effects Ci [9, 17] | Herbicidal effects Ch [10, 17] | Herbicidal effects Ec [11, 17] | Herbicidal effects Di [12, 17] | Herbicidal effects Sc [13] | Herbicidal effects Ec [14] | Herbicidal effects Mo [15] | Herbicidal effects Am [1, 18] | Herbicidal effects Po [2, 18] | Herbicidal effects Di [3, 18] | Herbicidal effects Ci [4, 18] | Herbicidal effects Ch [5, 18] | Herbicidal effects Ec [6, 18] | Herbicidal effects Am [7, 19] | Herbicidal effects Po [8, 19] | Herbicidal effects Ci [9, 19] | Herbicidal effects Ch [10, 19] | Herbicidal effects Ec [11, 19] | also measured
1 | CC(C)COc1cc(-c2ccc(C(F)(F)F)n(C)c2=O)c(F)cc1Cl [1-168] | 5 | 5 | 5 | 5 | 5 | 5 | 5 | 5 | 5 |  |  |  |  |  |  |  |  |  |  |  | Herbicidal effects Am [1, 16]: 5; Herbicidal effects Po [2, 16]: 5; Herbicidal effects Di [3, 16]: 5; Herbicidal effects Ci [4, 16]: 5; Herbicidal effects Ch [5, 16]: 5; Herbicidal effects Ec [6, 16]: 5
2 | CC(C)OCCOc1cc(-c2ccc(C(F)(F)F)n(C)c2=O)c(F)cc1Cl [1-169] | 5 | 5 | 5 | 5 | 5 | 5 | 5 | 5 | 5 | 5 | 5 | 5 | 5 | 5 | 5 |  |  |  |  |  | 
3 | CC(C)=CCOc1cc(-c2ccc(C(F)(F)F)n(C)c2=O)c(F)cc1Cl [1-174] | 5 | 5 | 5 | 5 | 5 | 5 | 5 | 5 | 5 | 5 | 5 | 5 | 5 | 5 | 5 |  |  |  |  |  | 
4 | CC#CCOc1cc(-c2ccc(C(F)(F)F)n(C)c2=O)c(F)cc1Cl [1-175] | 5 | 5 | 5 | 5 | 5 | 5 | 5 | 5 | 5 | 5 | 5 | 5 | 5 | 5 | 5 |  |  |  |  |  | 
5 | C=CCOc1cc(Cl)cc(F)c1-c1ccc(C(F)(F)F)n(C)c1=O [1′-3] |  |  |  |  |  |  | 4 | 5 | 5 | 5 | 5 | 5 | 5 | 5 | 5 | 5 | 5 | 5 | 5 | 5 | Herbicidal effects Di [12, 19]: 5
6 | C#CC(CC)Oc1cc(Cl)cc(F)c1-c1ccc(C(F)(F)F)n(C)c1=O (stereo not drawn) [1′-6] |  |  |  |  |  |  | 5 | 5 | 5 | 5 | 5 | 5 | 5 | 5 | 5 | 5 | 5 | 5 | 5 | 5 | Herbicidal effects Di [12, 19]: 5
